Test results published in US20250179047A1, “5-[7-(3,4-DIHYDRO-1H-ISOQUINOLINE-2-CARBONYL)-1,2,3,4 TETRAHYDROISOQUINOLIN-6-YL]-1H-PYRROLE-3-CARBOXAMIDE DERIVATIVES, PHARMACEUTICAL COMPOSITIONS CONTAINING THEM AND THEIR USES AS PRO-APOPTOTIC AGENTS” (LES LABORATOIRES SERVIER, priority 2022, published 2025).
Where two headings read alike, the source gives them in different places.

Experiments:
BCL2 WT = BCL2 WT (Homo sapiens (Human), UniProt P10415); experiment: TR-FRET competitive binding assay, BCL2 WT
Procedure, shortened: (§1)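 Terbium-labelled N-terminal Halo-fusion BCL2 or BCLXL (E. coli), 0.5 nM, competed against fluorescein-labelled PUMA peptide (2 or 20 nM) for 2 h at 23° C in 50 mM Hepes pH 7.5, 150 mM NaCl, 5% DMSO. TR-FRET 520/495 nm ratio gave IC50 by four-parameter fit; Ki derived from IC50.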

BCL2 G101V [1] = molecular target: BCL2 G101V (Homo sapiens, UniProt P10415, G101V); experiment: TR-FRET competitive binding assay, BCL2 G101V; settings: BCL2 G101V; Ki determined from IC50; read-out: TR_FRET EKI_Bcl2 G101V
Procedure, shortened: as §1

BCL2 G101V [2] = experiment: TR-FRET competitive binding assay, BCL2 G101V; set-up: species or system human; settings: for TR_FRET EKI G101V/WT selectivty ratio: ratio Ki BCL2 G101V / Ki BCL2 WT; for TR_FRET EKI G101V/WT selectivty: ratio of Ki BCL2 G101V to BCL2 WT
Procedure, shortened: as §1

BCL2 D103Y = BCL2 D103Y (Homo sapiens, UniProt P10415, D103Y); experiment: TR-FRET competitive binding assay, BCL2 D103Y; settings: Ki determined from IC50, read-out: TR_FRET EKI_Bcl2 D103Y
Procedure, shortened: as §1

BCLXL WT = BCLXL WT (Homo sapiens (Human), UniProt Q07817); experiment: TR-FRET competitive binding assay, BCLXL WT; settings: for Ki: BCLXL WT, Ki determined from IC50, read-out: TR_FRET EKI BclxL; for TR_FRET EKI BCLxL/WT selectivty ratio: ratio Ki BCLxL / Ki BCL2 WT; for TR_FRET EKI BCLxL/WT selectivty: ratio of Ki BCLxL to BCL2 WT
Sequence of BCLXL WT (Q07817 other isoform, or with tags, fused parts or gaps): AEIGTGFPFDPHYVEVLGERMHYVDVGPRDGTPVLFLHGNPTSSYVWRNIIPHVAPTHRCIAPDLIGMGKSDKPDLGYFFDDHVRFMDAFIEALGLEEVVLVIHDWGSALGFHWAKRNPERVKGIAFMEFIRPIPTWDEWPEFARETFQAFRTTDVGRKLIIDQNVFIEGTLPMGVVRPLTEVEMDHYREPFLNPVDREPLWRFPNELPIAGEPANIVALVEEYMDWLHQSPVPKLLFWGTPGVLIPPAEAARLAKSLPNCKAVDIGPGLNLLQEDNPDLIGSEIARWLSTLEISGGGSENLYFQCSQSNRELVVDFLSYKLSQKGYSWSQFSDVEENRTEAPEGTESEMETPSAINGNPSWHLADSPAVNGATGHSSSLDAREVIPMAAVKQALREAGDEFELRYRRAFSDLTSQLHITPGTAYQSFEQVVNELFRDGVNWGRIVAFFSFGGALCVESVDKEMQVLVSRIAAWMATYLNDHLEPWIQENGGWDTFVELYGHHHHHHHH
Procedure, shortened: as §1

KMS-12-PE Bcl-2 WT = experiment: In vitro cytotoxicity CellTiter-Glo 48 h, KMS-12-PE Bcl-2 WT; assay type: cell-based; settings: Homo sapiens, KMS-12-PE, C50 = concentration needed to reach 50% of the cellular viability
Procedure, shortened: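 Bcl-2 WT- and G101V-expressing KMS-12-PE cells; 48 h treatment at 37 °C, 5% CO2; CellTiter-Glo ATP luminescence; C50 from 11-point curves.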

[3] = Ki determined from IC50, read-out: TR_FRET EKI_Bcl2 WT
[4] = Ki determined from IC50, read-out: TR_FRET EKI_Bcl2

SMILES | Ki (BCL2 WT; [3]) [nM] | Ki (BCL2 G101V [1]) [nM] | TR_FRET EKI G101V/WT selectivty ratio (BCL2 G101V [2]) | Ki (BCL2 D103Y) [nM] | Ki (BCLXL WT) [nM] | TR_FRET EKI BCLxL/WT selectivty ratio (BCLXL WT) | IC50 (KMS-12-PE Bcl-2 WT) [µM] | Ki (BCL2 WT; [4]) [nM] | TR_FRET EKI G101V/WT selectivty (BCL2 G101V [2]) | TR_FRET EKI BCLxL/WT selectivty (BCLXL WT)
Cc1c(C(=O)N(c2ccccc2)c2cnn(C)c2)cc(-c2cc3c(cc2C(=O)N2Cc4ccccc4C[C@H]2C)CN(C(=O)Cc2cccc(N4CC5(CN(C)C5)C4)c2)CC3)n1C [Example 217, 1,2-dimethyl-5-[2-[2-[3-(6-methyl-2,6-diazaspiro[3.3]heptan-2-yl)phenyl]acetyl]-7-[(3R)-3-methyl-3,4-dihydro-1H-isoquinoline-2-carbonyl]-3,4-dihydro-1H-isoquinolin-6-yl]-N-(1-methylpyrazol-4-yl)-N-phenyl-pyrrole-3-carboxamide] | 0.02 | 2 | 88.7 | 0.09 | 0.6 | 24.9 | 0.0453 |  |  | 
Cc1c(C(=O)N(c2ccccc2)c2cccc(C#N)c2)cc(-c2cc3c(cc2C(=O)N2Cc4ccccc4C[C@H]2C)CN(C(=O)Cc2ccc(OCCN4CCOCC4)cc2)CC3)n1C [Example 218, N-(3-cyanophenyl)-1,2-dimethyl-5-[7-[(3R)-3-methyl-3,4-dihydro-1H-isoquinoline-2-carbonyl]-2-[2-[4-(2-morpholinoethoxy)phenyl]acetyl]-3,4-dihydro-1H-isoquinolin-6-yl]-N-phenyl-pyrrole-3-carboxamide] | 0.03 | 1.5 | 45.3 | 0.08 | 13.8 | 418.1 | 0.0142 |  |  | 
COc1ncc(N(C(=O)c2cc(-c3cc4c(cc3C(=O)N3Cc5ccccc5C[C@H]3C)CN(C(=O)Cc3ccc(OCCN(C)C)cc3F)CC4)n(C)c2C)c2ccccc2)cc1F [Example 219, 5-[2-[2-[4-[2-(dimethylamino)ethoxy]-2-fluoro-phenyl]acetyl]-7-[(3R)-3-methyl-3,4-dihydro-1H-isoquinoline-2-carbonyl]-3,4-dihydro-1H-isoquinolin-6-yl]-N-(5-fluoro-6-methoxy-3-pyridyl)-1,2-dimethyl-N-phenyl-pyrrole-3-carboxamide] | 0.05 | 4.6 | 89.8 | 0.13 | 2.9 | 57.8 | 0.131 |  |  | 
Cc1c(C(=O)N(c2ccccc2)c2ccnn2C)cc(-c2cc3c(cc2C(=O)N2Cc4ccccc4C[C@H]2C)CN(C(=O)Cc2ccc(OCCN4CCOCC4)cc2)CC3)n1C [Example 220, 1,2-dimethyl-5-[7-[(3R)-3-methyl-3,4-dihydro-1H-isoquinoline-2-carbonyl]-2-[2-[4-(2-morpholinoethoxy)phenyl]acetyl]-3,4-dihydro-1H-isoquinolin-6-yl]-N-(2-methylpyrazol-3-yl)-N-phenyl-pyrrole-3-carboxamide] | 0.13 | 14.3 | 109.9 | 0.37 | 42.3 | 325.6 | 0.0907 |  |  | 
Cc1nn(C)cc1N(C(=O)c1cc(-c2cc3c(cc2C(=O)N2Cc4ccccc4C[C@H]2C)CN(C(=O)Cc2ccc(OCCN(C)C)cc2)CC3)n(C)c1C)c1ccccc1 [Example 221, 5-[2-[2-[4-[2-(dimethylamino)ethoxy]phenyl]acetyl]-7-[(3R)-3-methyl-3,4-dihydro-1H-isoquinoline-2-carbonyl]-3,4-dihydro-1H-isoquinolin-6-yl]-N-(1,3-dimethylpyrazol-4-yl)-1,2-dimethyl-N-phenyl-pyrrole-3-carboxamide] | 0.24 | 19.1 | 79.5 | 0.53 | 28.3 | 118.0 | 0.121 |  |  | 
Cc1nn(C)cc1N(C(=O)c1cc(-c2cc3c(cc2C(=O)N2Cc4ccccc4C[C@H]2C)CN(C(=O)Cc2ccc(OCCN(C)C)cc2F)CC3)n(C)c1C)c1ccccc1 [Example 222, 5-[2-[2-[4-[2-(dimethylamino)ethoxy]-2-fluoro-phenyl]acetyl]-7-[(3R)-3-methyl-3,4-dihydro-1H-isoquinoline-2-carbonyl]-3,4-dihydro-1H-isoquinolin-6-yl]-N-(1,3-dimethylpyrazol-4-yl)-1,2-dimethyl-N-phenyl-pyrrole-3-carboxamide] | 0.09 | 6.3 | 69.6 | 0.19 | 12.5 | 138.9 | 0.055 |  |  | 
Cc1c(C(=O)N(c2ccccc2)c2cc(F)cc(C#N)c2)cc(-c2cc3c(cc2C(=O)N2Cc4ccccc4C[C@H]2C)CN(C(=O)Cc2ccc(OCCN4CCOCC4)cc2)CC3)n1C [Example 226, N-(3-cyano-5-fluoro-phenyl)-1,2-dimethyl-5-[7-[(3R)-3-methyl-3,4-dihydro-1H-isoquinoline-2-carbonyl]-2-[2-[4-(2-morpholinoethoxy)phenyl]acetyl]-3,4-dihydro-1H-isoquinolin-6-yl]-N-phenyl-pyrrole-3-carboxamide] |  | 8.4 |  | 0.76 | 41.8 |  | 0.0365 | 0.26 | 32.2 | 160.8
Cc1c(C(=O)N(c2ccccc2)c2cc(F)cc(C#N)c2)cc(-c2cc3c(cc2C(=O)N2Cc4ccccc4C[C@H]2C)CN(C(=O)Cc2ccc(OCCN4CCOCC4)cc2F)CC3)n1C [Example 227, N-(3-cyano-5-fluoro-phenyl)-5-[2-[2-[2-fluoro-4-(2-morpholinoethoxy)phenyl]acetyl]-7-[(3R)-3-methyl-3,4-dihydro-1H-isoquinoline-2-carbonyl]-3,4-dihydro-1H-isoquinolin-6-yl]-1,2-dimethyl-N-phenyl-pyrrole-3-carboxamide] |  | 10.8 |  | 0.33 | 37.2 |  | 0.0254 | 0.17 | 63.7 | 219.1
Cc1c(C(=O)N(c2ccc(O)cc2)c2cnn(C)c2)cc(-c2cc3c(cc2C(=O)N2Cc4ccccc4C[C@H]2C)CN(C(=O)Cc2ccc(OCCN4CCOCC4)cc2F)CC3)n1C [Example 233] |  | 0.32 |  | 0.08 | 2.74 |  | 0.00694 | 0.039 | 8.2 | 70.3
Cc1c(N(C(=O)c2cc(-c3cc4c(cc3C(=O)N3Cc5ccccc5C[C@H]3C)CN(C(=O)Cc3ccc(OCCN5CCOCC5)cc3F)CC4)n(C)c2C)c2ccccc2)cc(C#N)n1C [Example 234] |  | 0.76 |  | 0.16 | 3.68 |  | 0.00221 | 0.086 | 8.9 | 42.8
Cc1c(C(=O)N(c2ccccc2)c2cnn(C)c2)cc(-c2cc3c(cc2C(=O)N2Cc4ccccc4C[C@H]2C)CN(C(=O)Cc2ccc(OCCC4CCN(C)CC4)cc2)CC3)n1C [Example 237] |  | 0.52 |  | 0.057 | 1.7 |  | 0.007 | 0.032 | 16.3 | 53.1
Cc1c(C(=O)N(c2ccccc2)c2cnn(C(F)F)c2)cc(-c2cc3c(cc2C(=O)N2Cc4ccccc4C[C@H]2C)CN(C(=O)Cc2ccc(OCCC4CCN(C)CC4)cc2)CC3)n1C [Example 238] |  | 1.07 |  | 0.13 | 2.8 |  | 0.00907 | 0.064 | 16.7 | 43.8
Cc1c(C(=O)N(c2ccccc2)c2cnn(C)c2)cc(-c2cc3c(cc2C(=O)N2Cc4ccccc4C[C@H]2C)CN(C(=O)Cc2ccc(OCCN(C)C)cc2F)CC3)n1C [Example 239] |  | 5.25 |  | 0.132 | 4.3 |  | 0.0128 | 0.066 | 79.5 | 65.2
Cc1c(C(=O)N(c2ccccc2)c2cnn(C)c2)cc(-c2cc3c(cc2C(=O)N2Cc4ccccc4C[C@H]2CN2CCCCC2)CN(C(=O)Cc2ccc(OCCC4CCOCC4)cc2)CC3)n1C [Example 240] |  | 6.7 |  | 0.15 | 37.5 |  | 0.0446 | 0.116 | 57.8 | 323
Cc1c(C(=O)N(c2ccccc2)c2cnn(C(F)F)c2)cc(-c2cc3c(cc2C(=O)N2Cc4ccccc4C[C@H]2CN2CCCCC2)CN(C(=O)Cc2ccc(OCCC4CCOCC4)cc2)CC3)n1C [Example 241] |  | 39.2 |  | 0.64 | 52.7 |  | 0.0586 | 0.244 | 160.7 | 216
